According to patent publication US20090136470A1, “REGULATORY T CELLS AND METHODS OF MAKING AND USING SAME” (priority 2007, published 2009):
Where two headings read alike, the source gives them in different places.

Assays:
[1] = system: CD4^+CD25^− spleen T cells; assay: Th-17 differentiation of CD4 T cells stimulated with dendritic cells or spleen APCs plus TGF-β and IL-6 (intracellular IL-17 staining, IL-17 ELISA); format: cell-based, mouse
Protocol: (§1) For CD4^+CD25^− T cell isolation, spleens were removed, teased into cell-single suspensions and filtered through a 70 μm cell strainer (Fisher Scientific, USA). CD4^+CD25^−T cells were isolated by negative selection after incubation with a mix of specific biotin-conjugated mAbs (anti-CD8, CD11b, CD11ε, CD25, CD45R (B220), NK1.1, and TER119) at 1/200 dilution, and anti-biotin magnetic microbeads (25-40 μl per spleen) (Miltenyi Biotec, USA).
(§2) For dendritic cells isolation, spleen and MLN were chopped and digested by collagenase type D (Roche, USA) for 30 min at room temperature. Digested tissues were treated with 5 mM of EDTA for additional 5 min and mashed through a 70 μm cell strainer. Subsequently, CD11c^+ cells were enriched by positive selection using anti-CD11c microbeads according to the manufacturer's protocol (Miltenyi Biotec, USA). Enriched populations were stained with CD45-APC, CD 11c-PE, I-A^b-FITC and TCR β and sorted for TCRβ^−CD45^+CD11c^+I-Ab^+ by flow cytometry using a FACS-DIVA cell sorter (USA).
(§3) The culture medium used for dendritic cell-T cell cultures was Iscove's modified Dulbecco medium (IMDM) (Gibco, USA) supplemented with 10% heat-inactivated FCS, 2 mM L-glutamine, 100 U/ml penicillin, 100 μg/ml streptomycin, and 5 mM β-mercaptoethanol (all Sigma, USA). […] For dendritic cell-T cell cultures, 2×10^4 dendritic cells and 1×10^5 T cells were cultured in a volume of 200 μl (96-well plates). For irradiated APC-T cell cultures, 5×10^5 APCs and 1×10^5 T cells were cultured in a volume of 200 μl in 96-well plates (2×10^6 APCs and 0.5×10^6 T cells per well in 48-well plates). […] For the study shown in FIG. 4A, after sorting of naive CD4^+ cells (CD25^−CD44^lowCD62L^+), cells were washed twice in PBS+0.1% BSA, counted and labeled with 2 μM of CFSE (Carboxyfluorescein diacetate, succinimidyl ester) (Molecular Probes, USA) at a concentration of 5−10×10^6 cells per ml in PBS-0.1% BSA.
To block non-specific staining, the 2.4G2 anti-CD16/32 antibody was added.

[2] = system: CD4^+CD25^−T cells; assay: CTLA-4, CD103, CCR9 and CD25 staining of CD4 T cells stimulated with spleen APCs plus TGF-β1 and/or RA; format: cell-based, mouse; settings: TGF-β1 added to RA
Protocol: as §1
APCs were isolated from spleen of C57BL/6 mice by negative selection using CD90.2 (Thy1.2) magnetic microbeads to deplete T cells (Miltenyi Biotec).
as §3
(§4) To block non-specific staining, the 2.4G2 anti-CD16/32 antibody was added. […] For intracellular cytokine staining, cells obtained from in vitro cultures or isolated IELs were incubated for 4-5 hours with 50 ng/ml PMA, 750 ng/ml Ionomycin (both Sigma, USA) and 10 μg/ml Brefeldin A (Invitrogen, USA) in a tissue culture incubator at 37° C.

[3] = system: CD4 cells cultured with either MLN DCs (MDC) or splenic DCs (SDC); assay: Retinal (RAL): TH-17 differentiation and IL-17 production in DC/T cell co-cultures; format: cell-based
[4] = system: CD4 cells cultured with MLN DCs (MDC) or splenic DCs (SDC); assay: Retinal (RAL): TGF-β mediated Foxp3 induction (Treg differentiation) in DC/T cell co-cultures; format: cell-based
[5] = system: retinoic-acid orphan receptor RORg-t; assay: Retinal (RAL): RORg-t in APC-free system; format: cell-based
[6] = system: RAR; settings: cited from earlier work
[7] = system: RXR; settings: cited from earlier work
[8] = target: T1, PPAR-γ (Homo sapiens, UniProt P37231); settings: cited from earlier work
T1 sequence (P37231 1-505): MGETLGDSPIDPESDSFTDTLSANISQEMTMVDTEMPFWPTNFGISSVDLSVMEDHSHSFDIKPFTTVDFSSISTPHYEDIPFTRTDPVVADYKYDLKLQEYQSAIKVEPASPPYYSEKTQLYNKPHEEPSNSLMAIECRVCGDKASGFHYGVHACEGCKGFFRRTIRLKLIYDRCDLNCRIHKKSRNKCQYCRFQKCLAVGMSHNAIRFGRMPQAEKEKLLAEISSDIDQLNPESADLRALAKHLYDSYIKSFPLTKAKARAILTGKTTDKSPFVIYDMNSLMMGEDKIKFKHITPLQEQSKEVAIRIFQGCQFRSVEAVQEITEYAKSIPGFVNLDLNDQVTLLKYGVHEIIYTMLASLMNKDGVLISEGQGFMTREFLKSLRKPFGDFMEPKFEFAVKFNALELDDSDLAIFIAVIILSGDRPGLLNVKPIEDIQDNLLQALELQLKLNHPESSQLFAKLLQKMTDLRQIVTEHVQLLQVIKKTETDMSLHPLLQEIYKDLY

[9] = system: CD4^+T cells from small intestine lamina propria and spleen; assay: Oral Listeria monocytogenes infection (and naïve mice) treated with RA or LE540: IL-17^+ and Foxp3^+ CD4 T cells; format: in vivo, mouse
Description: Listeria monocytogenes (strain WT LMOVA) was used. Mice were orally infected (gavage) with 5×10^8 CFU of L. monocytogenes. Mice received i.p. injections of vehicle, RA or LE540 on the same day and 2 days after infection. Mice were sacrificed 5 days post-infection for analysis.
Every second day, in a interval of two weeks, naïve mice received gavage of either vehicle, RA or LE540.
Liver lymphocytes were isolated using 37.5% isotonic Percoll (GE Healthcare, USA), as previously described [Y. Kinjo et al, Nat Immunol 7, 978 (2006)]. Intestinal lymphocytes were isolated and prepared as previously described [Aranda et al., J Immunol 158, 3464 (1997)]. Briefly, small and large intestines were removed and placed in chilled HBSS media containing 5% FCS. The intestines were carefully cleaned from the mesentery and flushed of fecal content. Intestines were opened longitudinally and then cut into 1 cm pieces. The intestinal tissue was transferred to a 250-ml Erlenmeyer flasks containing 25 ml of preheated HBSS complemented with 2% FCS and 1 mM DTT (Sigma, USA) and shaken at 200 rpm for 40 min at 37° C. The tissue suspension was passed through a stainless steel sieve into 50-ml conical tubes and the cells were pelleted by centrifugation at 1200 rpm for 10 min at 4° C. The cell pellet was resuspended in complete HBSS, layered over a discontinuous 40/70% Percoll gradient, and centrifuged at 2000 rpm for 30 min. Cells from the 40/70% interface were collected, washed and resuspended in complete RPMI media. These purified cells constituted the intraepithelial lymphocyte (IEL) population. To isolate the lamina propria lymphocytes (LPL), the remaining intestinal tissue in the stainless steel sieve was minced and transferred to conical tubes. The minced pieces were resuspended in 20 ml of complete RPMI containing 1 mg/ml of collagenase (Sigma, USA) and shaken at 200 rpm for 40 min at 37° C. The tissue suspension was collected and passed through a 70 μm cell strainer and the cells were pelleted by centrifugation at 1200 rpm. The cells were then resuspended and layered onto a 40/70% Percoll gradient, centrifugated and processed as described above for the IEL preparation.
as §4
For Foxp3 staining, no stimulation with PMA/Ionomycin was performed, with the exceptions of FIGS. 8B and 9A. In these cases, the time of incubation with PMA/Ion was reduced to 3.5 hours. Intracellular Foxp3 staining was performed as per the eBioscience's Foxp3-staining kit protocol.

[10] = system: CD4^+CD25^−T cells; assay: TGF-β-dependent Foxp3 induction (Treg differentiation) in CD4 T cells with dendritic cells or APCs; format: cell-based, mouse; settings: OT-II CD4 cells, OVAp, TGF-β1; LE135 1 μM, RA 100 nM
Protocol: as §1, §2, §3
For Foxp3 staining, no stimulation with PMA/Ionomycin was performed, with the exceptions of FIGS. 8B and 9A. […]

**Q.** With `CC1=C(/C=C/C(C)=C\C=C\C(C)=C\C(=O)O)C(C)(C)CCC1` [9-cis RA, 9-cis retinoic acid] as the compound, how does the “Th-17 differentiation by spleen dendritic cells” value ([1]; added to cultures with TGF-β and IL-6, 100 nM) read?
**A.** also inhibited the Th-17 differentiation by spleen dendritic cells

**Q.** Which “RA-induced CCR9 expression” value [2] does the source give for “TGF-β: cytokine, transforming growth factor-beta, exogenous, 5 ng/ml (R&D Systems)” here?
**A.** partially antagonized

**Q.** For `CC1=C(/C=C/C(C)=C/C=C/C(C)=C/C=O)C(C)(C)CCC1` [RAL, retinal], which TH-17 differentiation [3] is on record?
**A.** able to inhibit TH-17 differentiation

**Q.** And the “IL-17 production from CD4 cells” value ([3]; cultured with either MLN DCs (MDC) or splenic DCs (SDC))?
**A.** suppresses IL-17 production

**Q.** And the TH-17 differentiation ([3]; listed as retinal)?
**A.** suppressor of TH-17 differentiation

**Q.** And the “TGF-β mediated Foxp3 induction / Treg differentiation” value [4]?
**A.** enhance TGF-β mediated Foxp3 induction

**Q.** And the “increased induction of Foxp3, MDC versus SDC cultures” value ([4]; DC/T cell co-cultures)?
**A.** observed mainly in MDC cultures

**Q.** And the “TGF-β mediated Foxp3 induction / Treg differentiation” value ([4]; listed as retinal)?
**A.** enhances Treg differentiation

**Q.** What about the RORg-t [5] of the same compound?
**A.** inhibited

**Q.** And the “binding to RAR” value [6]?
**A.** does not bind

**Q.** And the “binding to RXR” value [7]?
**A.** shown to bind

**Q.** And the “binding to PPAR-γ” value [8]?
**A.** shown to bind

**Q.** What does the source list for `CN1c2cc3c(cc2N=C(c2ccc(C(=O)O)cc2)c2ccc4ccccc4c21)C(C)(C)CCC3(C)C` [LE540]?
**A.** Th-17 mucosal T cells (IL-17 staining of CD4^+T cells, small intestine lamina propria) ([9]; 5 days after oral L. monocytogenes infection, i.p. days 0 and 2, RA 300 μg/mouse, LE540 100 μg/mouse): no apparent difference compared to the controls; differentiation / number of mucosal Foxp3^+Treg cells (small intestine lamina propria) ([9]; Lm challenged mice, 5 days after oral infection): significantly reduce; spleen Foxp3^+CD4 cells ([9]; Lm infected mice (2 i.p. injections) and naïve mice (2-week gavage)): No effect

**Q.** Which “effect of RALDH inhibition on RAL effects on TH-17 differentiation” value ([3]; citral added with RAL) does the source give for `CC(C)=CCCC(C)=CC=O` [citral] here?
**A.** does not reverse RAL effects

**Q.** Which results are given for `CN1c2cc3c(cc2N=C(c2ccc(C(=O)O)cc2)c2ccccc21)C(C)(C)CCC3(C)C` [LE135]?
**A.** relative inefficiency of MLN dendritic cells to mediate Th-17 differentiation ([1]; RAR antagonist included during activation under Th-17 conditions, 1 μM): reversed; TGF-β-dependent Foxp3 induction by MLN dendritic cells [10]: reduced; effect of RAR antagonist on RAL-increased Foxp3 induction ([4]; LE135 added with RAL): reversed Foxp3 induction
